The record followed here is paper PMC9329436, “Optimization of the 4-anilinoquin(az)oline scaffold as epidermal growth factor receptor (EGFR) inhibitors for chordoma utilizing a toxicology profiling assay platform” (Scientific Reports, 2022).

SMILES strings stand for the structures. Bounds are passed on as bounds.

The test system of the first data set is HL60 cells. As to the kind of experiment: AsedaSciences SYSTEMETRIC Cell Health Screen (flow cytometry toxicity profiling). Particulars: HL60, 4 h, 5 nM–100 µM, probability 0–1, n = 2. The text has this:
To prioritize further optimization, in addition to cellular potency, we utilized the AsedaSciences® […]® Cell Health Screen. This live cell flow cytometry (FC) screen was developed to assess human safety risk for candidate pharmaceutical small molecules at the early hit-to-lead stage of development. The screen works by estimating the risk using a supervised machine learning (ML) classifier to assess a multiparametric cellular stress phenotype, produced by the test compound, relative to a training set of known compounds (Table S1). This screen has been designed for early pipeline risk estimation regardless of pharmaceutical class/disease type, so it uses HL60 as the reporter cell line.
The ML classifier was trained with 300 historically known compounds (on market or withdrawn drugs, research compounds, etc.), which were divided into two outcome classes based upon literature, clinical trials, and market histories where applicable. This external curation informed an outcome of “high-risk” or “low-risk”. All 300 compounds were also processed through the automated FC screen, populating each of the two classes with frequency distributions of empirical cell-based phenotypes.
To estimate human safety risk for an unknown compound, the ML classifier assesses the similarity of the test compound’s cell-based phenotype to the distributions of phenotypes in the two outcome classes. […] Phenotypes are derived from twelve FC detection parameters, including light scatter and a series of fluorescent physiological reporter dyes, that track cell stress-related endpoints.
To produce the Cell Health Index, the ML classifier uses all twelve FC parameters simultaneously in a multidimensional logistic regression model, so the CHI contains the most predictive power. In addition to the Cell Health Index, Table 4 also reports probability scores for eight cell stress-related endpoints. These scores are produced individually by passing information to the ML classifier relating to parameters that inform that endpoint. For example, to produce the cell morphology (CM) score, the ML classifier only uses the FC detection parameters for forward scatter (informing change in cell diameter) and side scatter (informing change in optical granularity of the cell) to inform the model. Together, these eight endpoints provide a “biological fingerprint”, allowing assessment of the degree to which SAR series members behave differently across endpoints.
In a 384-well platform, HL60 cells were exposed to a 10-step, 3 × dilution series of each test compound (5 nM–100 µM) for 4 h at 37 °C with 5% CO2. Each dilution series was screened in duplicate, occupying a total of 20 wells, allowing 16 test compounds to be assayed per plate. Each row contained one positive and one negative control well, for a total of 16 replicate positive/negative control pairs on each assay plate. Compound formatting, cell deposition, and dye application were performed robotically so that final assay conditions comprised 100,000 cells in a 40 µL volume. After the 4 h compound exposure, cells were immediately stained with a panel of fluorescent dyes that report physiological signatures of both mitochondrial dysfunction and gross cell stress. Fluorescence and forward/side-scatter data were collected using automated FC with no gating. FC data are processed by an automated algorithm for producing quality control measures and ML classification of compound phenotypes. • 2. HL60 cell culture production
HL60 cells were produced as suspension cultures in glass 850 cm^2 roller bottles with vented caps, at 1 RPM, 5% CO2, and 37 °C. […] Culture density was maintained at or below 1 × 10^6 cells/mL.
For orientation: Flow cytometry measures light scatter and fluorescence of single cells or particles in a stream.
Regarding `C#Cc1cccc(Nc2ncnc3ccc(F)cc23)c1` [Compound 5], the “CC: Cell Cycle score” value is reported as 0.34, the “CM: Cell morphology score” value worked out at 0.0041, the “CMI: Cell membrane integrity score” value came to 0.091 and the “GSH: Glutathione score” value is listed as 0.087. Also, the “MMP: Mitochondrial membrane depolarization score” value came out at 0.26, the “NMI1: Nuclear membrane integrity 1 score” value is 0.082, the “NMI2: Nuclear membrane integrity 2 score” value is given as 0.11 and the “ROS: Reactive superoxide species score” value worked out at 0.34.

For `C#Cc1cccc(Nc2ncnc3ccc(Cl)cc23)c1` [Compound 7], the “CC: Cell Cycle score” value is given as 0.10, the “CM: Cell morphology score” value is 0.0047, the “CMI: Cell membrane integrity score” value worked out at 0.030 and the “GSH: Glutathione score” value was 0.011. In addition, the “MMP: Mitochondrial membrane depolarization score” value came to 0.015, the “NMI1: Nuclear membrane integrity 1 score” value amounted to 0.13, the “NMI2: Nuclear membrane integrity 2 score” value was found to be 0.053 and the “ROS: Reactive superoxide species score” value was determined as 0.20.

For `COc1ccc(/C=C/C(=O)Nc2ccccc2C(=O)O)cc1OC` [Tranilast, reference compound], the “CC: Cell Cycle score” value was found to be 0.10, the “CM: Cell morphology score” value is given as 0.020, the “CMI: Cell membrane integrity score” value worked out at 0.13 and the “GSH: Glutathione score” value is 0.030. For the same compound, the “MMP: Mitochondrial membrane depolarization score” value is on record as 0.17, the “NMI1: Nuclear membrane integrity 1 score” value is recorded as 0.73, the “NMI2: Nuclear membrane integrity 2 score” value was 0.30 and the “ROS: Reactive superoxide species score” value is reported as 0.12.

Regarding `CN(C)CCOC(c1ccccc1)c1ccccc1` [Diphenhydramine, reference compound], the “CC: Cell Cycle score” value is on record as 0.030, the “CM: Cell morphology score” value turned out to be 0.010, the “CMI: Cell membrane integrity score” value is 0.030 and the “MMP: Mitochondrial membrane depolarization score” value is 0.030. Besides, the “ROS: Reactive superoxide species score” value stood at 0.040.

Take `CCOC(=O)N1CCC(=C2c3ccc(Cl)cc3CCc3cccnc32)CC1` [Loratadine, reference compound]: the “CC: Cell Cycle score” value stood at 0.84, the “CM: Cell morphology score” value was 0.36, the “CMI: Cell membrane integrity score” value is listed as 0.70 and the “MMP: Mitochondrial membrane depolarization score” value was found to be 0.65. Besides, the “ROS: Reactive superoxide species score” value was found to be 0.85.

Regarding `Cc1ccnc2c1NC(=O)c1cccnc1N2C1CC1` [Nevirapine, reference compound], the “CC: Cell Cycle score” value is 0.070, the “CM: Cell morphology score” value turned out to be 0.020, the “CMI: Cell membrane integrity score” value was 0.050 and the “GSH: Glutathione score” value was determined as 0.030. The “MMP: Mitochondrial membrane depolarization score” value was 0.010, the “NMI1: Nuclear membrane integrity 1 score” value is 0.020, the “NMI2: Nuclear membrane integrity 2 score” value was found to be 0.040 and the “ROS: Reactive superoxide species score” value was determined as 0.28.

The same data set, now with this note: HL60, 4 h, 5 nM–100 µM, probability (0–1) of high-risk class, n = 2.
With `C#Cc1cccc(Nc2ncnc3ccc(F)cc23)c1` [Compound 5], the “CHI: Cell Health Index” value worked out at 0.26.

Consider `C#Cc1cccc(Nc2ncnc3ccc(Cl)cc23)c1` [Compound 7], for which the “CHI: Cell Health Index” value is listed as 0.16.

Consider `COc1ccc(/C=C/C(=O)Nc2ccccc2C(=O)O)cc1OC` [Tranilast, reference compound], for which the “CHI: Cell Health Index” value turned out to be 0.32.

As for `Cc1ccnc2c1NC(=O)c1cccnc1N2C1CC1` [Nevirapine, reference compound], the “CHI: Cell Health Index” value worked out at 0.18.

The data set is the same for the next values; noted with them: SYSTEMETRIC Cell Health Screen; assay n=2.
On to `C#Cc1cccc(Nc2c(C#N)cnc3ccc(Cl)cc23)c1` [Compound 26], for which the “Cell Health Toxcity Profile CC (DyeCycle Violet)” value turned out to be 0.93, the “Cell Health Toxcity Profile CM (Cell morphology)” value is 1.00, the “Cell Health Toxcity Profile CMI (Cell membrane integrity)” value came to 1.00 and the “Cell Health Toxcity Profile GSH (Glutathione)” value was found to be 0.99. Besides, the “Cell Health Toxcity Profile MMP (Mitochondrial membrane depolarization)” value is reported as 0.99, the “Cell Health Toxcity Profile NMI1 (Nuclear membrane integrity 1)” value was 0.98, the “Cell Health Toxcity Profile NMI2 (Nuclear membrane integrity 2)” value is recorded as 0.97 and the “Cell Health Toxcity Profile ROS (Reactive superoxide species)” value was found to be 1.00.

Still in this data set, the particulars now being: SYSTEMETRIC Cell Health Screen; classifier output; assay n=2.
Consider `C#Cc1cccc(Nc2c(C#N)cnc3ccc(Cl)cc23)c1` [Compound 26], for which the “Cell Health Toxcity Profile CHI” value is given as 0.83.

The subject of a further data set is U-CH1 chordoma cell line. The experiment in a line: Cell viability assay (alamarBlue, 72 h), U-CH1. Particulars: n = 4, 72 h. The class given is cell-based, human. On the procedure: (§1) Chordoma cell lines were cultured as described previously[10],[12],[33],[34]. Briefly, U-CH1 and U-CH2 cell lines were cultured in 4:1 IMDM:RPMI medium supplemented with 10% fetal bovine serum (FBS) and 1% penicillin/streptomycin in gel-coated flasks. […] CH22, UM-Chor1, U-CH12, and U-CH7 cell lines were cultured in RPMI medium supplemented with 10% FBS and 1% penicillin/streptomycin. The cell lines all undergo regular mycoplasma screening.
(§2) Cells were seeded in 384 well plates and were treated with test compound in quadruplicate 24 h after plating. Cell viability was assessed at 72 h using alamarBlue (ThermoFisher, USA). […] IC50 values were determined by four-parameter nonlinear regression analyses using GraphPad Prism™ version 8 software (San Diego, CA).
A word on the IC50: it is the concentration at which inhibition is half-maximal. Low values mean greater potency in that assay, high ones weaker potency in that assay. In turn, `C#Cc1cccc(Nc2c(C#N)cnc3ccc(Cl)cc23)c1` [Compound 26] returned an IC50 of 14 µM. That is a double-digit micromolar value.

Compound `C#Cc1cccc(Nc2ncnc3ccc(F)cc23)c1` [Compound 5] had an IC50 of 19 µM.

`C#Cc1cccc(Nc2ncnc3ccc(Cl)cc23)c1` [Compound 7] returned an IC50 of 25 µM.

The subject of another data set is U-CH2 chordoma cell line. As to the kind of experiment: Cell viability assay (alamarBlue, 72 h), U-CH2. Particulars: n = 4, 72 h. The class given is cell-based, human. On the procedure: as §1, §2
`C#Cc1cccc(Nc2c(C#N)cnc3ccc(Cl)cc23)c1` [Compound 26] displayed an IC50 of 40 µM.

`C#Cc1cccc(Nc2ncnc3ccc(F)cc23)c1` [Compound 5] registered an IC50 greater than 100 µM.

In the case of `C#Cc1cccc(Nc2ncnc3ccc(Cl)cc23)c1` [Compound 7], the IC50 was greater than 100 µM.
